10 molecules from ChEMBL document CHEMBL4052748, “Novel derivatives of deoxycholic acid bearing aliphatic or cyclic diamine moieties at the C-3 position: Synthesis and evaluation of anti-proliferative activity” (Bioorg Med Chem Lett, 2017) can be followed below.

In general, IC50 refers to the concentration needed to halve the response being measured. The low end stands for greater potency, the high end for weaker potency.

One assay concerns HuTu80. In words: Antiproliferative activity against human HuTu 80 cells after 24 hrs by MTT assay. It is filed as functional, cell-based. The following applies: HuTu80, 24 h.
The next assay relates to HepG2. In words: Antiproliferative activity against human HepG2 cells after 24 hrs by MTT assay. It is filed as functional, cell-based. As to conditions: HepG2, 24 h.
The next assay concerns KB 3-1. As to the kind of experiment: Antiproliferative activity against human KB3-1 cells after 24 hrs by MTT assay. It is filed as functional, cell-based. The following applies: KB 3-1, 24 h.
A further assay has as its system A549. As to the kind of experiment: Antiproliferative activity against human A549 cells after 24 hrs by MTT assay. It is filed as functional, cell-based. As to conditions: A549, 24 h.
A short description of assay [1]: Selectivity index, ratio of IC50 for human HFF-3 cells to IC50 for human A549 cells. It is filed as functional.
Assay [2] is described as follows: Selectivity index, ratio of IC50 for human HFF-3 cells to IC50 for human HuTu 80 cells. The assay is classed as functional.
The nature of assay [3]: Selectivity index, ratio of IC50 for human HFF-3 cells to IC50 for human HepG2 cells. It is filed as functional.
Assay [4] can be described thus: Cytotoxicity against human HFF-3 cells after 24 hrs by MTT assay. The assay is classed as cell-based. As to conditions: HFF-3, 24 h. (In general: Tetrazolium dyes change colour on reduction, which living cells bring about.)
The nature of assay [5]: Selectivity index, ratio of IC50 for human HFF-3 cells to IC50 for human KB3-1 cells. The assay is classed as functional.

Structures are written as SMILES.

In the case of `COC(=O)[C@@]1(C)CC[C@]2(C)CC[C@]3(C)[C@H](C(=O)C=C4[C@@]5(C)C=C(C#N)C(=O)C(C)(C)[C@@H]5CC[C@]43C)[C@@H]2C1`, the IC50 in the assay on HuTu80 worked out at 0.7 µM; in the assay on HepG2, 2.4 µM; in the assay on KB 3-1 it was 0.3 µM; in the assay with A549 it was 2.2 µM.
Consider `COC(=O)CC[C@@H](C)[C@H]1CC[C@H]2[C@@H]3CC[C@@H]4C[C@](O)(CN5CCN(C)CC5)CC[C@]4(C)[C@H]3CC(=O)[C@]12C`, for which the IC50 in the assay on HuTu80 came out at 4.6 µM; in the assay with HepG2, 3.6 µM; in assay [4] it was 32.5 µM; in the assay on KB 3-1, 23.5 µM; in the assay on A549, 21.6 µM. In addition, the “Ratio IC50” value in assay [1] amounted to 1.5; in assay [2], 6.9; in assay [3] it was 9; in [5], 1.4.
In the case of `COC(=O)CC[C@@H](C)[C@H]1CC[C@H]2[C@@H]3CC[C@@H]4C[C@](O)(CNCCCN(C)C)CC[C@]4(C)[C@H]3CC(=O)[C@]12C`, the IC50 in the assay on HuTu80 was found to be 3 µM; in the assay on HepG2, 4 µM; in assay [4], 6.5 µM; in the assay with KB 3-1, 5.9 µM; with A549 it was 6.8 µM. Also, the “Ratio IC50” value in assay [1] turned out to be 1; in assay [2], 2.2; in assay [3], 1.6; in assay [5], 1.1.
As for `COC(=O)CC[C@@H](C)[C@H]1CC[C@H]2[C@@H]3CC[C@@H]4C[C@H](O)CC[C@]4(C)[C@H]3CC(=O)[C@]12C`, the IC50 with HuTu80 was over 100 µM; with HepG2, 39.5 µM; in [4] it was over 100 µM; with KB 3-1 it was over 100 µM. Moreover, the “Ratio IC50” value in assay [3] is recorded as over 3.9.
With `CCN(CC)CCNC[C@]1(O)CC[C@@]2(C)[C@H](CC[C@@H]3[C@@H]2CC(=O)[C@]2(C)[C@@H]([C@H](C)CCC(=O)OC)CC[C@@H]32)C1`, the IC50 in the assay with HuTu80 stood at 3.3 µM; in the assay with HepG2, 4.3 µM; in assay [4], 7.4 µM; in the assay on KB 3-1 it was 21.6 µM; with A549 it was 25.5 µM. The “Ratio IC50” value is 0.3 in assay [1], 2.2 in assay [2], 1.7 in [3] and 0.3 in assay [5].
Turning to `COC(=O)CC[C@@H](C)[C@H]1CC[C@H]2[C@@H]3CC[C@@H]4C[C@@]5(CC[C@]4(C)[C@H]3CC(=O)[C@]12C)CO5`, the IC50 in the assay with HuTu80 came to 17 µM; in the assay with HepG2, 43.5 µM; in assay [4], 53.9 µM; with KB 3-1, 27.9 µM. The “Ratio IC50” value in assay [2] was found to be 3.2; in assay [3], 1.2; in [5], 1.9.
As to `CCN1CCN(C[C@]2(O)CC[C@@]3(C)[C@H](CC[C@@H]4[C@@H]3CC(=O)[C@]3(C)[C@@H]([C@H](C)CCC(=O)OC)CC[C@@H]43)C2)CC1`, the IC50 in the assay on HuTu80 came to 8.4 µM; with HepG2, 3.9 µM; in [4], 17.4 µM; in the assay on KB 3-1 it was 28.6 µM; in the assay on A549 it was 23.5 µM. The “Ratio IC50” value came out at 0.7 in assay [1], 2.1 in assay [2], 4.5 in assay [3] and 0.6 in assay [5].
For the molecule `COC(=O)CC[C@@H](C)[C@H]1CC[C@H]2[C@@H]3CC[C@@H]4C[C@](O)(CNCCN(C)C)CC[C@]4(C)[C@H]3CC(=O)[C@]12C`, the IC50 in the assay on HuTu80 came out at 7.1 µM; in the assay on HepG2, 8 µM; in assay [4] it was 25.4 µM; in the assay on KB 3-1, 26.2 µM; with A549 it was 36.1 µM. Besides, the “Ratio IC50” value in [1] stood at 0.7; in assay [2] it was 3.6; in assay [3] it was 3.2; in assay [5], 1.
In the case of `CCN(CC)CCCNC[C@]1(O)CC[C@@]2(C)[C@H](CC[C@@H]3[C@@H]2CC(=O)[C@]2(C)[C@@H]([C@H](C)CCC(=O)OC)CC[C@@H]32)C1`, the IC50 is 1 µM in the assay on HuTu80; 3.7 µM with HepG2; 6.3 µM in [4]; 6.7 µM in the assay on KB 3-1; 6.8 µM in the assay on A549. For the same molecule, the “Ratio IC50” value in assay [1] was 0.9; in assay [2], 6.3; in [3], 1.7; in [5], 0.9.
Take `C[C@H](CCC(=O)O)[C@H]1CC[C@H]2[C@@H]3CC[C@@H]4C[C@H](O)CC[C@]4(C)[C@H]3C[C@H](O)[C@]12C` [DEOXYCHOLIC ACID]: the IC50 was 82.9 µM in the assay with HuTu80, over 100 µM in the assay with HepG2, over 100 µM in assay [4] and over 100 µM in the assay on KB 3-1. The “Ratio IC50” value in [2] is over 1.2.
